Measured values reported in patent US20090062251A1, “Novel Compounds 002” (ASTRAZENECA AB, priority 2007, published 2009).

Columns and labels:
[1] = molecular target: T1, Human CB1 receptor (hCB1) (Homo sapiens, UniProt P21554); assay: hCB1 receptor binding (3H-CP55,940 displacement); conditions: hCB1 membranes, Ki=IC50/(1+[rad]/Kd)
T1 construct: purchased Receptor Biology
Method: hCB1 and hCB2 Receptor Binding
Human CB1 receptor from Receptor Biology (hCB1) or human CB2 receptor from BioSignal (hCB2) membranes are thawed at 37° C., passed 3 times through a 25-gauge blunt-end needle, diluted in the cannabinoid binding buffer (50 mM Tris, 2.5 mM EDTA, 5 mM MgCl2, and 0.5 mg/mL BSA fatty acid free, pH 7.4) and aliquots containing the appropriate amount of protein are distributed in 96-well plates. […] The total and non-specific binding are determined in the absence and presence of 0.2 μM of HU210 respectively. The plates are vortexed and incubated for 60 minutes at room temperature, filtered through Unifilters GF/B (presoaked in 0.1% polyethyleneimine) with the Tomtec or Packard harvester using 3 mL of wash buffer (50 mM Tris, 5 mM MgCl2, 0.5 mg BSA pH 7.0). The filters are dried for 1 hour at 55° C. The radioactivity (cpm) is counted in a TopCount (Packard) after adding 65 μl/well of MS-20 scintillation liquid.
Based on the above assays, the dissociation constant (Ki) for a particular compound of the invention towards a particular receptor is determined using the following equation:
[rad] is a standard or reference radioactive ligand concentration at that moment; and
Kd is the dissociation constant of the radioactive ligand towards the particular receptor.

[2] = molecular target: T1, Human CB1 receptor (hCB1); assay: hCB1 GTPγS binding; format: biochemical; conditions: for EC50: hCB1 membranes, GTPγ35S, 10-point dose-response; for Emax: maximal stimulated binding determined with 10 μM Win 55,212-2
Method: hCB1 and hCB2 GTPγS Binding
Human CB1 receptor from Receptor Biology (hCB1) or human CB2 receptor membranes (BioSignal) are thawed at 37° C., passed 3 times through a 25-gauge blunt-end needle and diluted in the GTPγS binding buffer (50 mM Hepes, 20 mM NaOH, 100 mM NaCl, 1 mM EDTA, 5 mM MgCl2, pH 7.4, 0.1% BSA). […] The basal and maximal stimulated binding is determined in absence and presence of 1 μM (hCB2) or 10 μM (hCB1) Win 55, 212-2 respectively. The membranes are pre-incubated for 5 minutes with 56.25 μM (hCB2) or 112.5 μM (hCB1) GDP prior to distribution in plates (15 μM (hCB2) or 30 μM (hCB1) GDP final). The plates are vortexed and incubated for 60 minutes at room temperature, filtered on Unifilters GF/B (presoaked in water) with the Tomtec or Packard harvester using 3 ml of wash buffer (50 mM Tris, 5 mM MgCl2, 50 mM NaCl, pH 7.0). The filters are dried for 1 hour at 55° C. The radioactivity (cpm) is counted in a TopCount (Packard) after adding 65 μl/well of MS-20 scintillation liquid. Antagonist reversal studies are done in the same way except that (a) an agonist dose-response curve is done in the presence of a constant concentration of antagonist, or (b) an antagonist dose-response curve is done in the presence of a constant concentration of agonist.

T1 sequence (P21554 whole entry): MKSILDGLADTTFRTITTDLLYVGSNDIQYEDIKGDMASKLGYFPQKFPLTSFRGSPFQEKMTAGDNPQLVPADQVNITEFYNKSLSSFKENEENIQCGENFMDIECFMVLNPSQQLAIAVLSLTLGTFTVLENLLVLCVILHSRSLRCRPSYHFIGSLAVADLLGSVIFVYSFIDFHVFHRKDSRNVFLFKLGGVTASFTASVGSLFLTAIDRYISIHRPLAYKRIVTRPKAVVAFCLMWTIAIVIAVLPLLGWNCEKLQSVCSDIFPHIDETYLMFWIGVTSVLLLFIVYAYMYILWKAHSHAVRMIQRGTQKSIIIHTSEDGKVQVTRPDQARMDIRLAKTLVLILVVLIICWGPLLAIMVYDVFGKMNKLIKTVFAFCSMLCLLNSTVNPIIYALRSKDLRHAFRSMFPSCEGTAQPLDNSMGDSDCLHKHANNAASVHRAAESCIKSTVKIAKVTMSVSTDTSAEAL

Row | SMILES | Ki [1] | EC50 [2] | Emax [2]
1 | CCNC(=O)CN(CC)C(=O)c1ccc2c(c1)c1c(n2C(=O)N(C)C)CCC(C2CCOCC2)C1 (centres unmarked) [N-ethyl-N-(ethylcarbamoylmethyl)-N′,N′-dimethyl-6-(oxan-4-yl)-5,6,7,8-tetrahydrocarbazole-3,9-dicarboxamide] | > 3480 nM | > 30000 nM | > 42%
2 | CN(CCCC(=O)NCCO)C(=O)c1ccc2c(c1)c1c(n2C)CC[C@@H](C2CCOCC2)C1 [(R)—N-(4-(2-Hydroxyethylamino)-4-oxobutyl)-N,9-dimethyl-3-(tetrahydro-2H-pyran-4-yl)-2,3,4,9-tetrahydro-1H-carbazole-6-carboxamide] | 69 nM | 173 nM | 120%
3 | CN(C(=O)c1ccc2c(c1)c1c(n2C)CC[C@@H](C2CCOCC2)C1)[C@H](CO)CCC(=O)NCCF [(R)—N-((S)-5-(2-Fluoroethylamino)-1-hydroxy-5-oxopentan-2-yl)-N,9-dimethyl-3-(tetrahydro-2H-pyran-4-yl)-2,3,4,9-tetrahydro-1H-carbazole-6-carboxamide] | 26 nM | 61 nM | 118%
4 | CCC(=O)NC1CCCN(C(=O)c2ccc3c(c2)c2c(n3C)CCC(C3CCOCC3)C2)C1 (centres unmarked) [N-[1-[9-methyl-6-(oxan-4-yl)5,6,7,8-tetrahydrocarbazole-3-carbonyl]-3-piperidyl]propanamide] | 63.2 nM | 263 nM | 122%
5 | CCNC(=O)[C@H]1CCN(C(=O)c2ccc3c(c2)c2c(n3C)CCC(C3CCOCC3)C2)C1 (stereo partly drawn) [(3S)—N-ethyl-1-[9-methyl-6-(oxan-4-yl)5,6,7,8-tetrahydrocarbazole-3-carbonyl]pyrrolidine-3-carboxamide] | 69.9 nM | 103 nM | 122%
6 | C[C@H](C(=O)NC1CC1)N(C)C(=O)c1ccc2c(c1)c1c(n2C)CCC(C2CCOCC2)C1 (stereo partly drawn) [N-[(1R)-1-(cyclopropylcarbamoyl)ethyl]-N,9-dimethyl-6-(oxan-4-yl)-5,6,7,8-tetrahydrocarbazole-3-carboxamide] | 19.6 nM | 29.6 nM | 120%
7 | CCN(CC(=O)NC1CC1)C(=O)c1ccc2c(c1)c1c(n2CC2CC2)CCC(C2CCOCC2)C1 (centres unmarked) [N-(cyclopropylcarbamoylmethyl)-9-(cyclopropylmethyl)-N-ethyl-6-(oxan-4-yl)-5,6,7,8-tetrahydrocarbazole-3-carboxamide] | 21.2 nM | 34.2 nM | 91%
8 | CN(CCCC(=O)NC1CC1)C(=O)c1ccc2c(c1)c1c(n2C)CCC(C2CCOCC2)C1 (centres unmarked) [N-[3-(cyclopropylcarbamoyl)propyl]-N,9-dimethyl-6-(oxan-4-yl)-5,6,7,8-tetrahydrocarbazole-3-carboxamide] | 7.1 nM | 16.2 nM | 113%
9 | Cn1c2c(c3cc(C(=O)N4CC(C(=O)NC5CC5)C4)ccc31)CC(C1CCOCC1)CC2 (centres unmarked) [N-cyclopropyl-1-[9-methyl-6-(oxan-4-yl)5,6,7,8-tetrahydrocarbazole-3-carbonyl]azetidine-3-carboxamide] | 107 nM | 274 nM | 121%
10 | CCNC(=O)CCCN(C)C(=O)c1ccc2c(c1)c1c(n2CCF)CCC(C2CCOCC2)C1 (centres unmarked) [N-[3-(ethylcarbamoyl)propyl]-9-(2-fluoroethyl)-N-methyl-6-(oxan-4-yl)-5,6,7,8-tetrahydrocarbazole-3-carboxamide] | 237 nM | 372 nM | 109%
11 | CCN(CC(=O)NCCF)C(=O)c1ccc2c(c1)c1c(n2C2CCC2)CCC(C2CCOCC2)C1 (centres unmarked) [9-cyclobutyl-N-ethyl-N-(2-fluoroethylcarbamoylmethyl)-6-(oxan-4-yl)-5,6,7,8-tetrahydrocarbazole-3-carboxamide] | 131 nM | 279 nM | 80%
12 | CN(CC(=O)NCCF)C(=O)c1ccc2c(c1)c1c(n2C)CCC(C2CCOCC2)C1 (centres unmarked) [N-(2-fluoroethylcarbamoylmethyl)-N,9-dimethyl-6-(oxan-4-yl)-5,6,7,8-tetrahydrocarbazole-3-carboxamide] | 291 nM | 721 nM | 110%
13 | CCS(=O)(=O)n1c2c(c3cc(C(=O)N(C)CC(=O)NC4CC4)ccc31)CC(C1CCOCC1)CC2 (centres unmarked) [N-(cyclopropylcarbamoylmethyl)-9-ethylsulfonyl-N-methyl-6-(oxan-4-yl)-5,6,7,8-tetrahydrocarbazole-3-carboxamide] | 18.1 nM | 18.8 nM | 116%
14 | Cn1c2c(c3cc(C(=O)N4CC[C@H](CC(=O)NC5CC5)C4)ccc31)CC(C1CCOCC1)CC2 (stereo partly drawn) [N-cyclopropyl-2-[(3R)-1-[9-methyl-6-(oxan-4-yl)5,6,7,8-tetrahydrocarbazole-3-carbonyl]pyrrolidin-3-yl]acetamide] | 35.5 nM | 69.2 nM | 115%
15 | CC(C)S(=O)(=O)n1c2c(c3cc(C(=O)N(C)CC(=O)NC4CC4)ccc31)CC(C1CCCCC1)CC2 (centres unmarked) [6-cyclohexyl-N-(cyclopropylcarbamoylmethyl)-N-methyl-9-propan-2-ylsulfonyl-5,6,7,8-tetrahydrocarbazole-3-carboxamide] | 21.2 nM | 43.9 nM | 110%
16 | CCN(CC(=O)NCC(F)(F)F)C(=O)c1ccc2c(c1)c1c(n2S(=O)(=O)CC)CCC(C2CCOCC2)C1 (centres unmarked) [N-ethyl-9-ethylsulfonyl-6-(oxan-4-yl)-N-(2,2,2-trifluoroethylcarbamoylmethyl)-5,6,7,8-tetrahydrocarbazole-3-carboxamide] | 25.1 nM | 51.4 nM | 112%
17 | CCn1c2c(c3cc(C(=O)N(C)CCCC(=O)NC)ccc31)CC(C1CCOCC1)CC2 (centres unmarked) [9-ethyl-N-methyl-N-[3-(methylcarbamoyl)propyl]-6-(oxan-4-yl)-5,6,7,8-tetrahydrocarbazole-3-carboxamide] | 59.2 nM | 146 nM | 121%
18 | CCN(CC(=O)NC[C@@H](C)O)C(=O)c1ccc2c(c1)c1c(n2C)CCC(C2CCOCC2)C1 (stereo partly drawn) [N-ethyl-N-[[(2R)-2-hydroxypropyl]carbamoylmethyl]-9-methyl-6-(oxan-4-yl)-5,6,7,8-tetrahydrocarbazole-3-carboxamide] | 182 nM | 318 nM | 124%
19 | CCS(=O)(=O)n1c2c(c3cc(C(=O)N4CCC(C)CC4)ccc31)CC(C1CCCCC1)CC2 (centres unmarked) [(6-cyclohexyl-9-ethylsulfonyl-5,6,7,8-tetrahydrocarbazol-3-yl)-(4-methyl-1-piperidyl)methanone] | 15.2 nM | 20 nM | 107%
20 | CCn1c2c(c3cc(C(=O)N(C)CCCC(=O)NCC(F)F)ccc31)CC(C1CCOCC1)CC2 (centres unmarked) [N-[3-(2,2-difluoroethylcarbamoyl)propyl]-9-ethyl-N-methyl-6-(oxan-4-yl)-5,6,7,8-tetrahydrocarbazole-3-carboxamide] | 45.2 nM | 98.3 nM | 114%
21 | Cn1c2c(c3cc(C(=O)N4CC[C@H](C(=O)NCCF)C4)ccc31)CC(C1CCOCC1)CC2 (stereo partly drawn) [(3S)—N-(2-fluoroethyl)-1-[9-methyl-6-(oxan-4-yl)5,6,7,8-tetrahydrocarbazole-3-carbonyl]pyrrolidine-3-carboxamide] | 30.5 nM | – | 119%
22 | CCNC(=O)CN(CC)C(=O)c1ccc2c(c1)c1c(n2C)CCC(C2CCOCC2)C1 (centres unmarked) [N-ethyl-N-(ethylcarbamoylmethyl)-9-methyl-6-(oxan-4-yl)-5,6,7,8-tetrahydrocarbazole-3-carboxamide] | 17.4 nM | 33.1 nM | 121%
23 | CC1CCN(C(=O)c2ccc3c(c2)c2c(n3C)CCC(C3CCCCC3)C2)CC1 (centres unmarked) [(6-cyclohexyl-9-methyl-5,6,7,8-tetrahydrocarbazol-3-yl)-(4-methyl-1-piperidyl)methanone] | 29.5 nM | 65.1 nM | 106%
24 | CCn1c2c(c3cc(C(=O)N(C)CCCC(=O)NCCF)ccc31)CC(C1CCOCC1)CC2 (centres unmarked) [9-ethyl-N-[3-(2-fluoroethylcarbamoyl)propyl]-N-methyl-6-(oxan-4-yl)-5,6,7,8-tetrahydrocarbazole-3-carboxamide] | 25.8 nM | 60.3 nM | 119%
